Assays:
Assay type in all cases: cell-based
[1] = molecular target: T1, human Nav1.7 (hSCN9A) (Homo sapiens, UniProt Q15858); test: Electrophysiology assay for Navs, whole cell patch clamp, human Nav1.7 (hSCN9A) expressing CHO cells; conditions: Kinact, read-out: activity (Ki) against Nav1.7, dissociation constant for the inactivated state
T1 construct: expressed in transfected cells; host or cells: CHO
Procedure: Electrophysiology Assay for Navs
Whole cell patch clamp recording is used to assess the efficacy or selectivity of Na channel blocker on human Nav1.3 (hSCN3A) expressing HEK293 cells or human Nv1.7 (hSCN9A) expressing CHO cells. Human Nav1.3 expressing HEK293 cells are grown in growth media which contain: Dulbecco's […] (DMEM), 10% heat-inactivated fetal bovine serum (FBS) (Hyclone Laboratories Inc), 100 microgram/mL Penicillin/100 U/mL Streptomycin, 150 microgram/mL Zeocin, 3 microgram/mL Geneticin. Human Nav1.7 expressing CHO cells are grown in growth media which comprised: HAM/F-12, 9% heat-inactivated FBS (Hyclone Laboratories Inc) and 100 microgram/mL Penicillin/100 U/mL Streptomycin, 100 microgram/mL Hygromycin.
Na channel expressing cells are dissociated by 0.05% trypsine-EDTA, and then seeded on cover glass for 24 to 48 hr. […]
The normalized steady-state inactivation curve is constructed using 2 sec (for vehicle) or 60 sec (for drugs) conditioning pulse to different potentials followed immediately by the test pulse to −10 mV. […] The affinity of drugs to resting state of Na channels (Kresting or Kr) is assessed by 30 msec test pulse from a negative holding potential of −120 or −130 mV, where virtually all channels are in the resting state. Kr value is calculated by a conventional 1:1 binding model: Kresting(Kr)={[drug]Imax,drug/(Imax,control−Imax,drug)} […]

[2] = molecular target: T2, human Nav1.7 (Homo sapiens, UniProt Q15858); test: FRET assay, human Nav1.7 channels (CHO, EFS on FDSS); conditions: read-out: activity (IC50) against Nav1.7
T2 construct: expressed in transfected cells; host or cells: CHO
T2 sequence (Q15858 whole entry): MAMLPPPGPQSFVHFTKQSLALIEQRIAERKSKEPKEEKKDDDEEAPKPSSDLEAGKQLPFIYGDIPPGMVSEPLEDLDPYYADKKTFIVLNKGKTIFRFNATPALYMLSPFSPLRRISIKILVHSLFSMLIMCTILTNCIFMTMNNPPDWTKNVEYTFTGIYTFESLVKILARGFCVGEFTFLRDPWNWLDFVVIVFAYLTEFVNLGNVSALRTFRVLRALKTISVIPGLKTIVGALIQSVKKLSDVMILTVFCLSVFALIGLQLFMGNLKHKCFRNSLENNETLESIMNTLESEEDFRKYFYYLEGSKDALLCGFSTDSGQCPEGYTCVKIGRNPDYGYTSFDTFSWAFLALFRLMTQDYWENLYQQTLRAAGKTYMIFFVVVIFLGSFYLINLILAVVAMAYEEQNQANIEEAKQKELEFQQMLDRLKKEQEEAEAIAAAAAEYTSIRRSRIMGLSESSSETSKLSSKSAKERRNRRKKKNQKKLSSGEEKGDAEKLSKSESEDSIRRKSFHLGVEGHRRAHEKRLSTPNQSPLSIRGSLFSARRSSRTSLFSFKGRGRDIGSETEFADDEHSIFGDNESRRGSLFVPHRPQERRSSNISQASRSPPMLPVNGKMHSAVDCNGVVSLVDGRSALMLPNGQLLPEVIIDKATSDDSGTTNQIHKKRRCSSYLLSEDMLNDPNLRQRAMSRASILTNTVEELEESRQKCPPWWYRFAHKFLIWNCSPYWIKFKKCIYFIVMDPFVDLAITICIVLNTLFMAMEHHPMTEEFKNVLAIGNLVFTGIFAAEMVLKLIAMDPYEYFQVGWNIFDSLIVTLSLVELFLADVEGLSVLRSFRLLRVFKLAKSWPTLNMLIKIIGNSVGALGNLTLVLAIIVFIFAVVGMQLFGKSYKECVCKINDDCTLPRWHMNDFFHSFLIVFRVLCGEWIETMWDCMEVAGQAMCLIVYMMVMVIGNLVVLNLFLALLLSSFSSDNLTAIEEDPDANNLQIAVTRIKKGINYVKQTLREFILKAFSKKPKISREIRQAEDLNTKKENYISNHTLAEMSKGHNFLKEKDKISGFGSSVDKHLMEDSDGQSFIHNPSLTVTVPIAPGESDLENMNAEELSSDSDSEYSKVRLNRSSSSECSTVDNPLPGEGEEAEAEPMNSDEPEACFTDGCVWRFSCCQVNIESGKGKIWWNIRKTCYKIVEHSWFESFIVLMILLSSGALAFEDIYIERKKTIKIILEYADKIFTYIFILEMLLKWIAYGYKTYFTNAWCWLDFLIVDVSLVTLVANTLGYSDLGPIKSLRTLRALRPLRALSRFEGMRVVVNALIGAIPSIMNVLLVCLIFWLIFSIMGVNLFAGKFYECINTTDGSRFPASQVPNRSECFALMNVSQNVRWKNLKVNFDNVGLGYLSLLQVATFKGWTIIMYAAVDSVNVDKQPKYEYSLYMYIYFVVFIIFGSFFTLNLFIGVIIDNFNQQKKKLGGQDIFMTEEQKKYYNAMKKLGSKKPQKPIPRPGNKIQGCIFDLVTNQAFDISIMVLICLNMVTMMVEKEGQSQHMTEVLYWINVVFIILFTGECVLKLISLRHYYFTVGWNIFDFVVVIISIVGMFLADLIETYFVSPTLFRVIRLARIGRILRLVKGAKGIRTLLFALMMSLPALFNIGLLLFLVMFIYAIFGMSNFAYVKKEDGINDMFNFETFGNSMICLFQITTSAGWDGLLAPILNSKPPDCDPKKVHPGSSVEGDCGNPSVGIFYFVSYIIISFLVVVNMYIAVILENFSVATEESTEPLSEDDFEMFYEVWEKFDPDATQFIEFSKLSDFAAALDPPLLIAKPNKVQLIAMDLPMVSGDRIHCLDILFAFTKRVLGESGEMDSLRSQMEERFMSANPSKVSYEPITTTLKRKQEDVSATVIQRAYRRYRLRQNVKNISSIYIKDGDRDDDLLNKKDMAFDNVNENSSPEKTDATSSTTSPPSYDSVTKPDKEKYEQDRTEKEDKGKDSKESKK
Procedure: (§1) The ability of the amide derivatives of the formula (I) to inhibit the Nav1.3, Nav1.7 and Nav1.5 channels is measured by Fluorescence Resonance Energy Transfer (FRET) assay and electrophysiology assay described below.
(§2) This screen is used to determine the effects of compounds on human Nav1.3, human Nav1.7, and human Nav1.5 channels, utilizing electrical field stimulation (EFS) system in 96-well plate format on FDSS (Hamamatsu Photonics) platform. The change of membrane potential is monitored with FRET dye pair, oxonol (DiSBAC2(3)) and coumarin (CC2-DMPE).
CHO cells expressing human Nav1.7 channels are grown in T225 flasks, in a 5% CO2 humidified incubator to about 80% confluence. Media composition consists of HAM/F12 with Glutamax I, 10% FCS, 100 units/mL Penicillin and 100 microgram/mL Hygromycin. […]
(§3) The data are analyzed and reported as normalized ratios of intensities measured at […]. […]
(§4) This analysis is performed using a computerized specific program designed for FDSS generated data. Fluorescence ratio values are plotted using XLfit™ to determine an IC50 value for each compound.

[3] = molecular target: T3, human Nav1.3 (Homo sapiens, UniProt Q9NY46); test: FRET assay, human Nav1.3 channels (HEK293, EFS on FDSS); conditions: read-out: activity (IC50) against Nav1.3
T3 construct: expressed in transfected cells; host or cells: HEK293
Procedure: as §1, §2
(§5) Each HEK293 cells expressing human Nav1.3 channels and HEK293 cells expressing human Nav1.5 channels are grown in T225 flasks, in a 5% CO2 humidified incubator to about 80% confluence. Media composition consists of Dulbecco's Modified Eagle Medium (high glucose), 10% FCS, 100 units/mL Penicillin, 100 microgram/mL Streptomycin and 500 microgram/mL Geneticin™. […]
as §3, §4

[4] = molecular target: T4, human Nav1.5 (Homo sapiens, UniProt Q14524); test: FRET assay, human Nav1.5 channels (HEK293, EFS on FDSS); conditions: read-out: activity (IC50) against Nav1.5
T4 construct: expressed in transfected cells; host or cells: HEK293
T4 sequence (Q14524 whole entry): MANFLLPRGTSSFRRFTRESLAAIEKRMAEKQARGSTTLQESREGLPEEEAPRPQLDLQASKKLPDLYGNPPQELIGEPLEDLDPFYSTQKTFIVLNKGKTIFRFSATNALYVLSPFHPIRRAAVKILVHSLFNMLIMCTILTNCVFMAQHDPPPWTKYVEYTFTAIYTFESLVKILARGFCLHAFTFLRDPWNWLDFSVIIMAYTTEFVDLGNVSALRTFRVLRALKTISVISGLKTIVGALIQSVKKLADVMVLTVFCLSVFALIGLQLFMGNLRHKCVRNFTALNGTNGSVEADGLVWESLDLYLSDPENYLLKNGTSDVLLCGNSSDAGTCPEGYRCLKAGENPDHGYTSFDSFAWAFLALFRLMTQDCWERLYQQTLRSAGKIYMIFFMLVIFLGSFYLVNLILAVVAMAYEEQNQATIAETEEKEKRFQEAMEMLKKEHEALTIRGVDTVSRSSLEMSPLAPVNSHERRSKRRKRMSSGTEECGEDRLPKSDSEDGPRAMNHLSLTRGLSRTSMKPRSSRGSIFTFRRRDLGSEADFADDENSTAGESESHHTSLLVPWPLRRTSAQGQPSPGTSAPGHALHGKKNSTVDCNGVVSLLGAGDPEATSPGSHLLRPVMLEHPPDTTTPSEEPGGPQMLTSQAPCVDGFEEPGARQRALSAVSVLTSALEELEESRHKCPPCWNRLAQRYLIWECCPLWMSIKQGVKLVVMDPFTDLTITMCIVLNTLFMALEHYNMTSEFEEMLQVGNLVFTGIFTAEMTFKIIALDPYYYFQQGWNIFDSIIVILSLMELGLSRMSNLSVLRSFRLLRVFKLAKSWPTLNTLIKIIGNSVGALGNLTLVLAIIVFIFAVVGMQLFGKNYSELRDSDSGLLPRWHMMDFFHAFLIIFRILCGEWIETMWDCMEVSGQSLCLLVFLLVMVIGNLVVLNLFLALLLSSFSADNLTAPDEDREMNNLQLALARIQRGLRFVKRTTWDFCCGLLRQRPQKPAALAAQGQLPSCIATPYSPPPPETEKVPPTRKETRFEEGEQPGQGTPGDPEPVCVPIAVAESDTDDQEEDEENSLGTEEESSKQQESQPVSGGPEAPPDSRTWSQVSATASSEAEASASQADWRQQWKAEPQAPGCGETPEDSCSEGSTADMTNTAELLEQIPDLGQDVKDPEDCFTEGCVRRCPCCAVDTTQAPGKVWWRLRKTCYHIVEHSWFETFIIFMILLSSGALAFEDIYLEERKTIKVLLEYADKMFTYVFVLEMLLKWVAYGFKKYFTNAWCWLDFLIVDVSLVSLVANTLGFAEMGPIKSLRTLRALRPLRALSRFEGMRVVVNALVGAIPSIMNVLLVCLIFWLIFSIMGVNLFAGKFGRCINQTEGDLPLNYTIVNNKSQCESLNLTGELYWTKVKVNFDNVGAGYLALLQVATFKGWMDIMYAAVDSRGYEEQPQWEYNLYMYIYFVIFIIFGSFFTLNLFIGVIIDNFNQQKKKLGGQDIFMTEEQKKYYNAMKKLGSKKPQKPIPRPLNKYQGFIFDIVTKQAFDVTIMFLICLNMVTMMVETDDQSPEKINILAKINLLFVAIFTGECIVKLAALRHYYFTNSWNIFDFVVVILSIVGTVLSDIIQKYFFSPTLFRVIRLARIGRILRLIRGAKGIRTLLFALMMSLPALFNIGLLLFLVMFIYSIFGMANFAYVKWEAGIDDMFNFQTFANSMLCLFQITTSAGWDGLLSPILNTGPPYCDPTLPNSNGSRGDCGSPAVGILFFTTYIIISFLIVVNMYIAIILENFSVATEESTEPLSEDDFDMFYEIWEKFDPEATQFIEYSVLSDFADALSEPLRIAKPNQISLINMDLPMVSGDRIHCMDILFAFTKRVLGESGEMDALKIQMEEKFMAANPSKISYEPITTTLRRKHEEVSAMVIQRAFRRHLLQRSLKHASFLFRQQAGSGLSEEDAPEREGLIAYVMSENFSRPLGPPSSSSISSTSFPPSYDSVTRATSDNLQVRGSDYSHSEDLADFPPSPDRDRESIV
Procedure: as §1, §2, §5, §3, §4

T1 sequence (Q15858 whole entry): as the sequence (Q15858 whole entry) above

Work on CC(=O)Nc1cc(C(C)NC(=O)c2ccc(OCC(F)(F)F)cn2)cc(C)n1 (single isomer, unassigned) [Example 29, N-(1-(2-acetamido-6-methylpyridin-4-yl)ethyl)-5-(2,2,2-trifluoroethoxy) picolinamide] yielded a Ki [1] of 950 nM.
Compound CCC(=O)Nc1cc(CNC(=O)c2ccc(OCC(F)(F)F)nc2)cc(C)n1 [Example 12, N-((2-methyl-6-propionamidopyridin-4-yl)methyl)-6-(2,2,2-trifluoroethoxy) nicotinamide] has an IC50 [2] of 1000 nM, an IC50 [3] of 510 nM and an IC50 [4] of over 30000 nM.

Reference: patent publication US9701658B2, “Amide derivatives as TTX-S blockers” (RaQualia Pharma Inc., priority 2012, dated 2017)
